Common to all, as to test: DTP human tumour cell line panel, 48 h
In test [1] the test system is K562.
In test [2] the test system is NCI-H23.
Test [3] concerns EKVX.
The test system of test [4] is KM12.
In test [5] the test system is Malme-3M.
Test [6] deals with LOX IMVI.
Test [7] has as its system OVCAR-3.
The test system of test [8] is BT-549.
The test system of test [9] is HOP-92.
The test system of test [10] is OVCAR-8.
Test [11] deals with A498.
Test [12] relates to COLO 205.
Test [13] relates to MCF7.
Test [14] concerns OVCAR-4.
For test [15], the system named is HCC 2998.
Test [16] relates to PC-3.
Test [17] relates to DU-145.
In test [18] the test system is HOP-62.
Test [19] deals with SK-OV-3.
Test [20] has as its system SK-MEL-2.

Structures are written as SMILES.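 Briefly, cells in 96-well plates were exposed to five compound concentrations for 48 h, and endpoints were estimated by linear interpolation. Here, GI50 denotes the concentration required for 50% inhibition of growth.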 The source made the active and inactive calls. No stated cut-off is given here; in the data, active = GI50 up to about 1.1 µM and inactive = higher.

As usually defined, the GI50 is the concentration giving 50% growth inhibition.

As to `COC1=CC(=O)c2c(ccc3ncnc(N)c23)C1=O`, the GI50 in test [1] was 0.659 µM (active); in test [2], 1.54 µM (inactive); in test [3], 2.04 µM (inactive); in test [4], 4.41 µM (inactive); in [5], 2.63 µM (inactive); in [6], 1.03 µM (active). Also, the GI50 was 1.48 µM (inactive) in test [7]; 1.79 µM (inactive) in [8]; 1.63 µM (inactive) in test [9]; 2.11 µM (inactive) in [10]; 2.22 µM (inactive) in test [11]; 3.58 µM (inactive) in test [12]. For the same compound, the GI50 in [13] was 1.54 µM (inactive); in [14], 0.561 µM (active); in [15] it was 6.03 µM (inactive); in [16], 2.32 µM (inactive); in test [17], 1.82 µM (inactive); in [18], 3.56 µM (inactive). For the same compound, the GI50 in test [19] was 6.28 µM (inactive); in test [20] it was 3.03 µM (inactive).

Turning to `CC(Oc1ccccc1)C(=O)NN` (stereo not given), the GI50 in test [1], in [2], in [3], in test [4], in [5] and in test [6] was > 100 µM (inactive) in each case. Besides, the GI50 in test [7], in test [8], in test [9], in test [10], in test [11] and in test [12] was > 100 µM (inactive) throughout. Also, the GI50 in [13], in [14], in test [15], in [16], in [17] and in test [18] was > 100 µM (inactive) in each case. Moreover, the GI50 in [19] and in [20] was > 100 µM (inactive) in each case.

`CCC(C#N)(c1ccccc1)N(CCc1ccccc1)C(=O)c1ccccc1` (stereo not given): the GI50 in test [1] was > 100 µM (inactive); in [2] it was 76.9 µM (inactive); in [3], > 100 µM (inactive); in [4] it was > 100 µM (inactive); in test [5], > 100 µM (inactive); in test [6], > 100 µM (inactive). Besides, the GI50 in test [7] was 85.9 µM (inactive); in test [8], 70.8 µM (inactive); in test [9], 12.6 µM (inactive); in [10], 20 µM (inactive); in test [11] it was 24.2 µM (inactive); in test [12], > 100 µM (inactive). Moreover, the GI50 in test [13] is > 100 µM (inactive); in test [14] it was 10.8 µM (inactive); in [15], 54.7 µM (inactive); in test [16] it was > 100 µM (inactive); in [17], > 100 µM (inactive); in [18] it was 15.9 µM (inactive). Besides, the GI50 is 32.8 µM (inactive) in test [19] and 67 µM (inactive) in test [20].

On to `CC1(C)CCCC2CC2CCC(C)(C)C1=O` (stereo not given), for which the GI50 in test [1] was 17.8 µM (inactive); in [2] it was > 100 µM (inactive); in test [3], 57.9 µM (inactive); in test [4], 56.2 µM (inactive); in [5], 58.3 µM (inactive); in test [6], 27.5 µM (inactive). The GI50 is 25.5 µM (inactive) in test [7]; > 100 µM (inactive) in test [8]; 74.8 µM (inactive) in test [9]; 82.8 µM (inactive) in test [10]; > 100 µM (inactive) in [11]; 18.5 µM (inactive) in test [12]. The GI50 is 18.3 µM (inactive) in test [13]; > 100 µM (inactive) in test [14]; 0.242 µM (active) in [15]; 51.1 µM (inactive) in test [16]; > 100 µM (inactive) in test [17]; > 100 µM (inactive) in test [18]. For the same compound, the values for the GI50 in [19] and in [20] were > 100 µM (inactive) and 31.8 µM (inactive), respectively.

Take `CCCCNC(=O)c1cc2c(cc1Cl)Sc1nccn1S2(=O)=O`: the GI50 in [1] was 78.5 µM (inactive); in test [2] it was > 100 µM (inactive); in test [3] it was 70.8 µM (inactive); in test [4] it was > 100 µM (inactive); in [5], > 100 µM (inactive); in test [6], 30.3 µM (inactive). Moreover, the GI50 in [7] is 34 µM (inactive); in [8], 78 µM (inactive); in [9] it was 25.4 µM (inactive); in test [10] it was > 100 µM (inactive); in [11], > 100 µM (inactive); in test [12] it was 60.7 µM (inactive). For the same compound, the GI50 is 66.4 µM (inactive) in test [13]; 43.7 µM (inactive) in test [14]; > 100 µM (inactive) in [15]; 55.2 µM (inactive) in test [16]; > 100 µM (inactive) in test [17]; 24.3 µM (inactive) in test [18]. For the same compound, the GI50 in test [19] is > 100 µM (inactive); in [20], 70 µM (inactive).

`COC(=O)C1CCC(=O)N1C(c1ccc2c(c1)OCO2)c1ccc2c(c1)OCO2` (stereo not given): the GI50 in test [1], in test [2], in test [3], in test [4], in [5] and in [6] was > 100 µM (inactive) each time. In addition, the GI50 in [7], in test [8], in [9], in [10], in test [11] and in test [12] was > 100 µM (inactive) in each case. Also, the GI50 in test [13], in test [14], in test [15], in [16], in test [17] and in [18] was > 100 µM (inactive) throughout. Besides, the GI50 in test [19] and in test [20] was > 100 µM (inactive) each time.

For the compound `COC(=O)C1=C(OC(=O)/C(=C/c2ccc(Cl)cc2)c2ccccc2)C(C(=O)OC)[C@@]2(O)[C@@H](C(=O)OC)[C@H](C)C[C@@H]1[C@@H]2C(=O)OC` (stereo not given in full), the GI50 is > 100 µM (inactive) in test [1]; 9.73 µM (inactive) in [2]; 27.2 µM (inactive) in test [3]; > 100 µM (inactive) in test [4]; > 100 µM (inactive) in [5]; > 100 µM (inactive) in test [6]. Besides, the GI50 was > 100 µM (inactive) in [7]; 22.2 µM (inactive) in test [8]; 0.573 µM (active) in test [9]; 4.45 µM (inactive) in [10]; 5.55 µM (inactive) in test [11]; > 100 µM (inactive) in [12]. Moreover, the GI50 was > 100 µM (inactive) in test [13]; > 100 µM (inactive) in test [14]; > 100 µM (inactive) in test [15]; 37.5 µM (inactive) in test [16]; > 100 µM (inactive) in test [17]; > 100 µM (inactive) in test [18]. The GI50 in test [19] and in test [20] was > 100 µM (inactive) each time.

`CO/C(N)=C(C#N)/N=C/c1ccsc1`: the GI50 in [1] was 30.4 µM (inactive); in test [2], 37.3 µM (inactive); in test [3], 54.6 µM (inactive); in [4], 60.7 µM (inactive); in test [5] it was 40.6 µM (inactive); in test [6], 18.6 µM (inactive). Further, the GI50 was 30.6 µM (inactive) in test [7]; 20.4 µM (inactive) in test [8]; 34.1 µM (inactive) in test [9]; 59 µM (inactive) in test [10]; > 100 µM (inactive) in test [11]; 36.6 µM (inactive) in [12]. Besides, the GI50 in test [13] was 32.5 µM (inactive); in test [14], > 100 µM (inactive); in [15], > 100 µM (inactive); in [16], 81.1 µM (inactive); in [17] it was 42.4 µM (inactive); in test [18], > 100 µM (inactive). Besides, the GI50 is > 100 µM (inactive) in [19] and 37.3 µM (inactive) in test [20].

Consider `CC(Oc1ccc(Cl)cc1Cl)C(=O)NN1C(=O)CSC1c1ccccc1` (stereo not given), for which the GI50 in [1] was 63.4 µM (inactive); in test [2] it was 86.5 µM (inactive); in [3] it was 90.2 µM (inactive); in [4], 64 µM (inactive); in test [5] it was 40.9 µM (inactive); in [6] it was 69 µM (inactive). Moreover, the GI50 in test [7] is 96.4 µM (inactive); in [8] it was 24 µM (inactive); in test [9] it was 27.7 µM (inactive); in [10], 51.1 µM (inactive); in test [11], 42.8 µM (inactive); in [12], > 100 µM (inactive). The GI50 in test [13] was 55.3 µM (inactive); in [14] it was 32.1 µM (inactive); in test [15], > 100 µM (inactive); in test [16], 32.4 µM (inactive); in [17], 91 µM (inactive); in test [18], 47.5 µM (inactive). The GI50 is 55.8 µM (inactive) in test [19] and 45.4 µM (inactive) in [20].

Turning to `CN(Cc1cnc2nc(N)nc(N)c2n1)c1ccc(C(=O)NCS(=O)(=O)O)cc1`, the GI50 in [1] is > 100 µM (inactive); in test [2], > 100 µM (inactive); in test [3], > 100 µM (inactive); in [4], 60.1 µM (inactive); in test [5] it was > 100 µM (inactive); in [6], 90.4 µM (inactive). For the same compound, the GI50 in [7] was > 100 µM (inactive); in [8], > 100 µM (inactive); in test [9] it was 1.34 µM (inactive); in test [10], > 100 µM (inactive); in test [11] it was > 100 µM (inactive); in [12], > 100 µM (inactive). In addition, the GI50 in test [13] is 57.9 µM (inactive); in test [14], > 100 µM (inactive); in test [15], > 100 µM (inactive); in test [16], 48.1 µM (inactive); in test [17], 25.7 µM (inactive); in test [18], > 100 µM (inactive). The GI50 in test [19] and in [20] was > 100 µM (inactive) each time.

Source of the values: ChEMBL document CHEMBL1201862, “PubChem BioAssay data set” (2004).
